ChEMBL document CHEMBL6078719, “Discovery of acetohydroxyacid synthase inhibitors as anti-tuberculosis lead compounds from natural products” (Bioorg Med Chem, 2025)
Converted amounts (≈) assume the structure as drawn. The source made the active and inactive calls. No cut-off for these calls is given here.

Assays:
[1] = Inhibition of Mycobacterium tuberculosis Acetohydroxy acid synthase using pyruvate as substrate at 40 uM incubated for 10 mins followed by substrate addition by colorimetric assay relative to control
[2] = Inhibition of Mycobacterium tuberculosis Acetohydroxy acid synthase using pyruvate as substrate incubated for 10 mins followed by substrate addition by colorimetric assay
[3] = system: Mycolicibacterium smegmatis; experiment: Antibacterial activity against Mycobacterium smegmatis assessed as inhibition of bacterial growth incubated for 3 days by alamar blue staining based assay; format: functional; settings: 72 h, time 3 day
[4] = system: Mycolicibacterium smegmatis; experiment: Synergistic antibacterial activity against Mycobacterium smegmatis assessed as inhibition of bacterial growth incubated for 3 days in presence of rifampicin by alamar blue staining based assay; format: functional, organism-based; settings: time 3.0 day
[5] = Selectivity index, ratio of IC50 for cytotoxicity against human THP-1 cells to MIC90 for antimycobacterial activity against Mycobacterium tuberculosis; format: toxicity, cell-based; settings: read-out: Selectivity Index
[6] = system: Mycobacterium tuberculosis; experiment: Binding affinity to Mycobacterium tuberculosis Acetohydroxy acid synthase assessed as change in enthalpy by isothermal titration calorimetry
[7] = system: Mycobacterium tuberculosis; experiment: Antibacterial activity against Mycobacterium tuberculosis assessed as inhibition of bacterial growth incubated for 3 days by alamar blue staining based assay; format: functional; settings: 72 h, time 3 day
[8] = Cytotoxicity against human THP-1 cells incubated for 48 hrs by CCK8 assay; format: toxicity, cell-based
[9] = system: Mycobacterium tuberculosis; experiment: Antimycobacterial activity against Mycobacterium tuberculosis assessed as inhibition of bacterial growth; format: functional
[10] = system: Mycobacterium tuberculosis; experiment: Synergistic antibacterial activity against Mycobacterium tuberculosis assessed as inhibition of bacterial growth incubated for 3 days in presence of rifampicin by alamar blue staining based assay; format: functional, organism-based; settings: time 3.0 day
[11] = Binding affinity to Mycobacterium tuberculosis Acetohydroxy acid synthase assessed as binding constant by isothermal titration calorimetry
[12] = system: Mycobacterium tuberculosis; experiment: Binding affinity to Mycobacterium tuberculosis Acetohydroxy acid synthase assessed as gibbs free energy change by isothermal titration calorimetry

SMILES	inhibition [1]	IC50 [2]	MIC [3]	Activity [4]	selectivity ratio [5]	deltaH [6]	MIC [7]	IC50 at 48 h [8]	MIC90 [9]	Activity [10]	Kd [11]	deltaG [12]
COc1ccc(-c2oc3c(CCC(C)(C)O)c(O)cc(O)c3c(=O)c2O)cc1	> 90%	32.4 µM	> 5000 µM	–	–	–	–	–	–	–	–	–
CC1=C(O)C(=O)C=C2C1=CC=C1[C@@]2(C)CC[C@@]2(C)[C@@H]3C[C@](C)(C(=O)O)CC[C@]3(C)CC[C@]12C [CELASTROL]	> 90%	0.81 µM	62.5 µM (≈ 28.2 µg/mL)	inactive	< 1	-9.87 kcal/mol	80 µM (≈ 36 µg/mL)	12.5 µM	80 µM (≈ 36 µg/mL)	inactive	1.9 µM	-7.81 kcal/mol
CCCCCCCCCCCC1=C(O)C(=O)C=C(O)C1=O [EMBELIN]	> 90%	9.46 µM	> 5000 µM	–	–	–	–	–	–	–	–	–
O=C(/C=C/c1ccc(O)c(O)c1/C=C/c1ccc(O)c(O)c1)O[C@H](Cc1ccc(O)c(O)c1)C(=O)O [SALVIANOLIC ACID A]	> 90%	0.84 µM	125 µM (≈ 61.8 µg/mL)	inactive	–	–	312 µM (≈ 155 µg/mL)	–	–	inactive	–	–
COC(=O)c1ccccc1S(=O)(=O)NC(=O)Nc1nc(C)cc(C)n1 [SULFOMETURON METHYL]	> 90%	3.68 µM	7.8 µM (≈ 2.84 µg/mL)	–	–	–	–	–	–	–	–	–
